{"source": "paper PMC10906223", "about": "(JCI Insight, 2024)", "key": {"[1]": {"system": "human donor dispersed islet cells", "test": "Glucagon secretion from healthy human donor dispersed islet cells", "assay_type": "cell-based", "parameters": "Glucagon secretion: unit not given here", "procedure": "Pancreata of nondiabetic C57BL/6J mice were digested using collagenase P (Roche Diagnostics, catalog 11213873001), and islets were manually picked up using a stereomicroscope (ZEISS Stemi 305). […] Isolated mouse islets or provided human islets were dispersed as described ([28]). Briefly, 100–120 islets were washed 2 times using modified HBSS, then dispersed in 600 μL Accutase (Innovative Cell Technologies, catalog AT-104) by gently pipetting up and down for 7 minutes at 37°C. […] Following refreshing of KRBH, cells were dispensed in 8 microfuge tubes (2,000 cells/tube) and treated with WCDD301, preclustered Ephrin-A5 Fc, or preclustered Fc in the presence or absence of the competitive inhibitor of EphA4 receptor, rhyncophylline ([60]) (MilliporeSigma, catalog SML2345). In the presence or absence of these effectors, secretion assay was performed sequentially as shown in Supplemental Table 5. […] Preclustering of Ephrin-A5 Fc was done by mixing Ephrin-A5 Fc or Fc alone (BioLegend, catalog 790102) with anti-Fc antibody (Invitrogen, catalog A16086) (1:10 molar ratio) 20 minutes before treatment ([62]). […] Shedding of cleaved EphA4 was measured from the cell culture medium. Experiments were performed by dispersion of 200 islets, and EphA4 levels in media were measured by EphA4 ELISA (ABclonal, catalog RK06572).\nThe Integrated Islet Distribution Program provided us human donor islets with their characteristics (Supplemental Table 6). Islets were centrifuged at 500g for 3 minutes, resuspended in CMRL 1066 medium (Gibco, catalog 1150-037) containing 11 mM glucose, and rested in an incubator overnight.\nFor the hormone secretion assay, islets or dispersed islet cells were adapted in KRBH buffer containing 11 mM glucose for 1 hour. Then, after 2 washes in HBSS containing 11 mM glucose, islets or cells were treated in the following sequential order in the presence or absence of WCDD301: incubation in KRBH (1 mM glucose, 30 minutes) followed by medium collection, incubation in KRBH (11 mM glucose, 30 minutes) followed by medium collection."}, "EphA4 receptor": {"target": "T1, EphA4 receptor (Mus musculus, UniProt Q03137)", "T1 construct": "purchased R&D Systems 641-A4-200", "T1 sequence (Q03137 with tags, fused parts or gaps limits assumed)": "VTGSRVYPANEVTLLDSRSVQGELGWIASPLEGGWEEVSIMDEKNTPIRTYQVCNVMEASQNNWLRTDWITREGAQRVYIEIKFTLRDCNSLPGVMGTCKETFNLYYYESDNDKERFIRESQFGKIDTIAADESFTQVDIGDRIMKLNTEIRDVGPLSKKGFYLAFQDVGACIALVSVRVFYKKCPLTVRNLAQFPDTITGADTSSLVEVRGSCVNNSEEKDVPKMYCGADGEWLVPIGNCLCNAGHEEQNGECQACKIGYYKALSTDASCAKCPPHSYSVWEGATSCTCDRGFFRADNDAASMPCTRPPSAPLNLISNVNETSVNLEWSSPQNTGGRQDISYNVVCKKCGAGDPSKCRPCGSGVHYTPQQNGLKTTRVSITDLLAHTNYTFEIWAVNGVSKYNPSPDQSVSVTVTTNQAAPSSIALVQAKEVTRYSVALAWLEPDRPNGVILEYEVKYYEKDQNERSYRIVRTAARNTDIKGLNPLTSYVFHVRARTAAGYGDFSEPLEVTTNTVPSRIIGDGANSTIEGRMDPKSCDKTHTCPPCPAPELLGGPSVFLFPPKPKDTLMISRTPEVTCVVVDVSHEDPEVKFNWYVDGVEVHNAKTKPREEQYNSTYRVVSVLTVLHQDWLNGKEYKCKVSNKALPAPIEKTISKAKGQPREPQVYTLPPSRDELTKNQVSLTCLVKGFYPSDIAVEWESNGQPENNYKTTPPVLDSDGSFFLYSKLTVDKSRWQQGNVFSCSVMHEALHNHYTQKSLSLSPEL", "test": "ELISA: binding affinity (Ki) of WCDD301 for EphA4 via bound Ephrin-A5 Fc", "parameters": "Bound Ephrin (0.1 µM-WCDD301) / Bound Ephrin, raw data: unit not given here", "conditions": "for Bound Ephrin (0.1 µM-WCDD301): replicates, Figure 1B", "procedure": "Wells of the protein A–coated microplate (Pierce, catalog 15132) were washed using 200 μL of binding buffer (PBS supplemented by 0.01% Tween 20). Recombinant mouse EphA4 Fc chimera protein (R&D Systems, catalog 641-A4-200) was reconstituted in 1× PBS (Genesee, catalog 25-507XB, pH 7.2 ± 0.1), diluted to 3 μg/mL using binding buffer, dispensed (100 μL) in each well, and rocked on a belly dancer shaker (3 hours at room temperature, RT). Following 3 washes in the binding buffer, blocking was done using blocking buffer (5% BSA in binding buffer) for 3 hours at RT. Then, after 5 washes, the reconstituted recombinant mouse Ephrin-A5 Fc (R&D Systems, catalog 7396-EA-050) was added (100 μL) into each well and rocked for 2.5 hours on the shaker (Ephrin-A5 Fc concentrations were used as described in the Results section). After 7 washes using binding buffer, alkaline phosphatase–conjugated antibody against Ephrin-A5 was diluted (1:1,000) in the binding buffer plus 2% BSA, added to each well, and incubated at 4°C, overnight. Conjugation of the anti-EFNA5 antibody (Abnova, catalog H00001946-M02; 0.5 mg/mL; target sequence 114–203) was done using Abcam conjugation kit (catalog ab102850) based on the manufacturer’s instruction. After washing 7 times, p-nitrophenyl phosphate tablet (MilliporeSigma, catalog N1891) was reconstituted in 5 mL of PBS and added to each well (100 μL). Following 1 hour shaking at RT in the dark, reaction was stopped by adding 100 μL of 3N NaOH. OD was read at 405 nm within 5 minutes using the microplate reader (Agilent BioTek Cytation 5).\nAs a control, Fc fragment (BioLegend, catalog 790102) was incubated and used for normalization of data. […] Then, Ki was determined via an approach called finding Ki without global fitting ([58]) by using the following formula: […]\nThis approach provided a Km value for […] and an estimate for its binding affinity, Ki. To further verify this finding, experiments were designed in the context of 8 nM Ephrin-A5 to determine bound levels of Ephrin-A5 in the presence of WCDD301 (0, 0.1, 0.4, 0.8, and 1.6 μM). Data were normalized and fit by nonlinear regression in GraphPad Prism software version 4 to determine IC50. Then, by using the Cheng-Prusoff equation"}, "[2]": {"conditions": "WCDD301 0.1 µM, 8 nM Ephrin-A5, Figure 1C"}}, "note": "Where “and” joins values, the source holds several entries; their conditions need not be identical. Equal entries are not always repeated. Where two headings read alike, the source gives them in different places."}
{"smiles": "CC(=O)OCC(N)(COC(C)=O)COC(C)=O", "note": "[WCDD301, 2-(acetoxymethyl)-2-aminopropane-1,3-diyl diacetate]", "values": [{"measurement": "Effect on glucagon secretion", "setting": "[1]; 1, 3 or 6 hours exposure, 1 mM and 11 mM glucose", "value": "dose-dependent and time-dependent suppression of glucagon secretion"}, {"measurement": "Glucagon secretion", "setting": "[1]; 1 hour exposure, WCDD301 0.75 µM, 1 mM (first group), Figure 2A", "value": "48.0 and 44.0 and 43.0"}, {"measurement": "Glucagon secretion", "setting": "[1]; 1 hour exposure, WCDD301 0.75 µM, head printed 1 mM (second group c4-c7), Figure 2A", "value": "55.8 and 56.2 and 53.0"}, {"measurement": "Glucagon secretion", "setting": "[1]; 1 hour exposure, WCDD301 1.5 µM, 1 mM (first group), Figure 2A", "value": "41.5 and 42.9 and 40.0"}, {"measurement": "Glucagon secretion", "setting": "[1]; 1 hour exposure, WCDD301 1.5 µM, head printed 1 mM (second group c4-c7), Figure 2A", "value": "50.8 and 55.7 and 48.0"}, {"measurement": "Glucagon secretion", "setting": "[1]; 1 hour exposure, WCDD301 3 µM, 1 mM (first group), Figure 2A", "value": "40.5 and 41.8 and 38.0"}, {"measurement": "Glucagon secretion", "setting": "[1]; 1 hour exposure, WCDD301 3 µM, head printed 1 mM (second group c4-c7), Figure 2A", "value": "49.7 and 48.4 and 44.0"}, {"measurement": "Glucagon secretion", "setting": "[1]; 3 hours exposure, WCDD301 0.75 µM, 1 mM (first group), Figure 2B", "value": "41.6 and 44.5 and 43.0"}, {"measurement": "Glucagon secretion", "setting": "[1]; 3 hours exposure, WCDD301 0.75 µM, head printed 1 mM (second group c4-c7), Figure 2B", "value": "66.0 and 60.4 and 68.0"}, {"measurement": "Glucagon secretion", "setting": "[1]; 3 hours exposure, WCDD301 1.5 µM, 1 mM (first group), Figure 2B", "value": "44.9 and 42.7 and 41.0"}, {"measurement": "Glucagon secretion", "setting": "[1]; 3 hours exposure, WCDD301 1.5 µM, head printed 1 mM (second group c4-c7), Figure 2B", "value": "58.5 and 55.8 and 60.0"}, {"measurement": "Glucagon secretion", "setting": "[1]; 3 hours exposure, WCDD301 3 µM, 1 mM (first group), Figure 2B", "value": "42.4 and 42.3 and 41.0"}, {"measurement": "Glucagon secretion", "setting": "[1]; 3 hours exposure, WCDD301 3 µM, head printed 1 mM (second group c4-c7), Figure 2B", "value": "66.8 and 54.9 and 52.0"}, {"measurement": "Glucagon secretion", "setting": "[1]; 6 hours exposure, WCDD301 0.75 µM, 1 mM (first group), Figure 2C", "value": "42.9 and 40.6 and 44.0"}, {"measurement": "Glucagon secretion", "setting": "[1]; 6 hours exposure, WCDD301 0.75 µM, head printed 1 mM (second group c4-c7), Figure 2C", "value": "67.1 and 76.1 and 81.0"}, {"measurement": "Glucagon secretion", "setting": "[1]; 6 hours exposure, WCDD301 1.5 µM, 1 mM (first group), Figure 2C", "value": "42.5 and 46.0 and 43.0"}, {"measurement": "Glucagon secretion", "setting": "[1]; 6 hours exposure, WCDD301 1.5 µM, head printed 1 mM (second group c4-c7), Figure 2C", "value": "67.6 and 68.1 and 62.0"}, {"measurement": "Glucagon secretion", "setting": "[1]; 6 hours exposure, WCDD301 3 µM, 1 mM (first group), Figure 2C", "value": "39.8 and 39.3 and 37.0"}, {"measurement": "Glucagon secretion", "setting": "[1]; 6 hours exposure, WCDD301 3 µM, head printed 1 mM (second group c4-c7), Figure 2C", "value": "56.5 and 55.1 and 50.0"}, {"measurement": "Ki", "setting": "EphA4 receptor; 8 nM Ephrin-A5, Figure 1C, read-out: Ki via Cheng-Prusoff equation", "value": 130, "unit": "nM"}, {"measurement": "IC50", "setting": "EphA4 receptor; 8 nM Ephrin-A5, WCDD301 0-1.6 μM, Figure 1C", "value": 210, "unit": "nM"}, {"measurement": "Bound Ephrin (0.1 µM-WCDD301)", "setting": "EphA4 receptor; EFN 2 nM", "value": "0.08 and 0.079 and 0.05"}, {"measurement": "Bound Ephrin (0.1 µM-WCDD301)", "setting": "EphA4 receptor; EFN 4 nM", "value": "0.057 and 0.077 and 0.06"}, {"measurement": "Bound Ephrin (0.1 µM-WCDD301)", "setting": "EphA4 receptor; EFN 8 nM", "value": "0.119 and 0.122 and 0.09"}, {"measurement": "Bound Ephrin (0.1 µM-WCDD301)", "setting": "EphA4 receptor; EFN 16 nM", "value": "0.141 and 0.136 and 0.1"}, {"measurement": "Bound Ephrin (0.1 µM-WCDD301)", "setting": "EphA4 receptor; EFN 32 nM", "value": "0.235 and 0.22 and 0.2"}, {"measurement": "Bound Ephrin (0.1 µM-WCDD301)", "setting": "EphA4 receptor; EFN 64 nM", "value": "0.301 and 0.295 and 0.32"}, {"measurement": "Ki", "setting": "EphA4 receptor; ELISA with Ephrin-A5 Fc, read-out: Ki, binding affinity for EphA4 receptor", "value": "≤ 130", "unit": "nM"}, {"measurement": "Bound Ephrin, normalized", "setting": "EphA4 receptor; [2]", "value": "51.76 and 79.12"}, {"measurement": "Bound Ephrin, raw data", "setting": "EphA4 receptor; [2]", "value": "0.069 and 0.1"}, {"measurement": "Bound Ephrin, raw data", "setting": "EphA4 receptor; WCDD301 0.4 µM, 8 nM Ephrin-A5, Figure 1C", "value": "0.037 and 0.06 and 0.07"}, {"measurement": "Bound Ephrin, raw data", "setting": "EphA4 receptor; WCDD301 0.8 µM, 8 nM Ephrin-A5, Figure 1C", "value": "0.02 and 0.035 and 0.04"}, {"measurement": "Bound Ephrin, raw data", "setting": "EphA4 receptor; WCDD301 1.6 µM, 8 nM Ephrin-A5, Figure 1C", "value": "0.012 and 0.009 and 0.01"}]}
